In PMC10810011 (Expert opinion on drug delivery, 2023):

What was measured:
[1] = test system: Caco-2/BBe cells; experiment: Cell cycle control phospho-antibody array; type: cell-based, human; conditions: 24 h, p < 0.01
[2] = biological target: PDE3A (Homo sapiens, UniProt Q14432); experiment: InVEST enzymatic activity, PDE3A; type: biochemical; conditions: M13 20 μM, 100 = no effect
[3] = biological target: D2S dopamine (Homo sapiens, UniProt P14416); experiment: InVEST radioligand filter binding, D2S dopamine; conditions: M13 20 μM, 100 = no effect
[4] = biological target: 5-HT1A (Homo sapiens, UniProt P08908); experiment: InVEST radioligand filter binding, 5-HT1A; conditions: M13 20 μM, 100 = no effect
[5] = test system: 3D Caco-2/BBe cells; experiment: Cytotoxicity in 3D cultured Caco-2/BBe cells; type: cell-based, human

Sequence of 5-HT1A (P08908 whole entry): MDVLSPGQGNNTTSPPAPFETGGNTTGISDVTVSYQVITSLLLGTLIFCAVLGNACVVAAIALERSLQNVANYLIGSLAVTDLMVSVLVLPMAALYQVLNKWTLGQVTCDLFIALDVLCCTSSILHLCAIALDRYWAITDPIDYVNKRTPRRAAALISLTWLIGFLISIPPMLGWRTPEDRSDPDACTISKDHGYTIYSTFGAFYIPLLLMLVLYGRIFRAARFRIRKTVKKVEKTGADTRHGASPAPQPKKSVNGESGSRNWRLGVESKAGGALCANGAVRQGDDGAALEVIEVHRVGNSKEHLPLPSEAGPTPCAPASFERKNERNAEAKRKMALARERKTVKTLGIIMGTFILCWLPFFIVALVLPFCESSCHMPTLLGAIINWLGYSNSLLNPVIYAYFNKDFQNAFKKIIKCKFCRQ
Sequence of D2S dopamine (P14416 1-414 isoform P14416-2): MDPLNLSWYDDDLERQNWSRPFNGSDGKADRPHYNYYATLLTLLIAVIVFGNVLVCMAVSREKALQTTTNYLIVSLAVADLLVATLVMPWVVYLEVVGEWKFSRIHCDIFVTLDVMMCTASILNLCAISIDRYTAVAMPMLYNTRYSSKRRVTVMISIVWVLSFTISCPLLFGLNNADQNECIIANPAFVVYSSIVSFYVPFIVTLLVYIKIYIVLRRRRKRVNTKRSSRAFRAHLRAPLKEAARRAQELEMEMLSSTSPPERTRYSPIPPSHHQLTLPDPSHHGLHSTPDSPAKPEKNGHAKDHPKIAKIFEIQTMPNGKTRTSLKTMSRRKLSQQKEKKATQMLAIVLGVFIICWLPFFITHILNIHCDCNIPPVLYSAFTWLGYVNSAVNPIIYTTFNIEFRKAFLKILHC
Sequence of PDE3A (Q14432 whole entry): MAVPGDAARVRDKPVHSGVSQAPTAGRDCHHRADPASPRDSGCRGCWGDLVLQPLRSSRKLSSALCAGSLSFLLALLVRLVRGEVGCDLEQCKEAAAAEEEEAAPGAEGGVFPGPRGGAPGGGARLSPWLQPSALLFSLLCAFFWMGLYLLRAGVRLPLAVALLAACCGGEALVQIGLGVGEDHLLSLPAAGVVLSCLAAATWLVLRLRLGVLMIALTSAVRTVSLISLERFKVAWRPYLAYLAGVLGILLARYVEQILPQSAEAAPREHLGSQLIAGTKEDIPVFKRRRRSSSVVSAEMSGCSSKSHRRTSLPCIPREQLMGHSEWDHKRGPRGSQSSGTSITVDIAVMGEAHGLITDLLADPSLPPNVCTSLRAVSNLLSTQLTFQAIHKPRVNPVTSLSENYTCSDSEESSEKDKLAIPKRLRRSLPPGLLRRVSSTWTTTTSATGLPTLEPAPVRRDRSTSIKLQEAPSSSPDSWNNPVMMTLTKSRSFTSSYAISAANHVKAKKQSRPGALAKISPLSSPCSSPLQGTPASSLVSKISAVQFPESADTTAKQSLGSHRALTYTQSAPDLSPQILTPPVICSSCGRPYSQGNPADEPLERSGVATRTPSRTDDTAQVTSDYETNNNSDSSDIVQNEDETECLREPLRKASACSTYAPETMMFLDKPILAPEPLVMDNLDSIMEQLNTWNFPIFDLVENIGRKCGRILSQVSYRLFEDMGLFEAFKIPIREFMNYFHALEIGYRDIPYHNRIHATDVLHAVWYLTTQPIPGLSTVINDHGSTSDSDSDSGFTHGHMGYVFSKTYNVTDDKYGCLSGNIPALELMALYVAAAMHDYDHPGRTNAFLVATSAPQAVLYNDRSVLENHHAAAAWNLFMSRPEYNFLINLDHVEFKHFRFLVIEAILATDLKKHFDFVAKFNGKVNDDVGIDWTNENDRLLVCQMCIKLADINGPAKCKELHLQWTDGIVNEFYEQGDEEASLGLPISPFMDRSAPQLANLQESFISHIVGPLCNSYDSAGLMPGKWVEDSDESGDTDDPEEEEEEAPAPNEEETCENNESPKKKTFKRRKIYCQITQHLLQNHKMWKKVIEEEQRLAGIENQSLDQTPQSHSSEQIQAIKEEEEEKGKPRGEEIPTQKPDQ

CCCCCC(CC(=O)CCc1ccc(O)c(OC)c1)SC[C@H](NC(=O)CC[C@H](N)C(=O)O)C(=O)NCC(=O)O (stereo partly shown) [M13, 5-glutathione-6-shogaol]
CDC25A expression compared with the control and NL groups [1]: down-regulated | phosphorylated CDC25A (p-CDC25A) compared with the control and NL groups [1]: down-regulated | % Activity Data 1 ([2]; repetition 1): 93% | % Activity Data 2 ([2]; repetition 2): 94% | % Activity Data 1 ([3]; repetition 1): 106% | % Activity Data 2 ([3]; repetition 2): 89% | % Activity Data 1 ([4]; repetition 1): 102% | % Activity Data 2 ([4]; repetition 2): 100% | sizes of 3D cell spheres ([5]; 11 days culture, regardless of the group): did not change significantly | green fluorescence intensity of 3D cell spheres (live cells) vs NC group ([5]; M13 ≥ 80 μM, day 11, p < 0.05): significantly lower
